In patent US20230277533A1, “THERAPEUTIC COMBINATIONS COMPRISING UBIQUITIN-SPECIFIC-PROCESSING PROTEASE 1 (USP1) INHIBITORS AND POLY (ADP-RIBOSE) POLYMERASE (PARP) INHIBITORS” (KSQ Therapeutics, Inc., priority 2020, published 2023):

Experiments:
Experiment in all cases: Colony formation (CFU) assay
Format in all cases: cell-based
[1] = tested on: HUO9; conditions: HUO9, bone
Method: (§1) In vitro experiments were conducted using the colony formation unit (CFU) assay on various cell lines. The CFU assay involved first establishing what cell plating density enabled the development of clearly interspersed colonies on a six-well plate when left to grow for around 14 days. […] Media was changed on day 8 containing appropriate concentrations of DMSO, USP1 inhibitor, Niraparib, or Olaparib. At or around day 14 when clearly interspersed colonies were visible in the DMSO treated wells, the cells were fixed and stained using 0.1% crystal violet in 10% ethanol for 20 minutes at room temperature. The plates were imaged then the amount of crystal violet stain in each well was quantified by extracting the crystal violet into 10% acetic acid and the absorbance measured at 565 nm.
(§2) IC50 values were calculated by fitting a two-parameter hill equation to the dose-response measurements. Non-linear-least-squares was used to find parameter values that minimize the squared error of the model fit to measured dose response. Non-linear-least-squares estimation was performed using the minpack.lm R package, version 1.2-1. Bliss synergy scores were calculated using the synergyfinder R package version 1.6.1.

[2] = tested on: RKO; conditions: Homo sapiens, colon
Method: as §1, §2

[3] = tested on: FADU; conditions: Homo sapiens, head and neck
Method: as §1, §2

[4] = tested on: KYSE410; conditions: Homo sapiens, KYSE-410; KYSE410, esophagus
Method: as §1, §2

[5] = tested on: NCIH1648; conditions: Homo sapiens, NCI-H1648; NCIH1648, lung
Method: as §1, §2

[6] = tested on: HOS; conditions: Homo sapiens, bone
Method: as §1, §2

[7] = tested on: HSC3; conditions: Homo sapiens, HSC-3; HSC3, head and neck
Method: as §1, §2

[8] = tested on: HUO3N1; conditions: HUO3N1, bone
Method: as §1, §2

[9] = tested on: SNU626; conditions: SNU626, nervous system
Method: as §1, §2

[10] = tested on: HBCx17; conditions: HBCx17, breast
Method: as §1, §2

[11] = tested on: SN12C; conditions: Homo sapiens, kidney
Method: as §1, §2

[12] = tested on: CCK81; conditions: CCK81, colon
Method: as §1, §2

[13] = tested on: CAOV3; conditions: Homo sapiens, Caov-3; CAOV3, ovary
Method: as §1, §2

[14] = tested on: GOTO; conditions: nervous system
Method: as §1, §2

[15] = tested on: A2780; conditions: Homo sapiens; A2780, ovary
Method: as §1, §2

[16] = tested on: KYSE140; conditions: Homo sapiens, KYSE-140; KYSE140, esophagus
Method: as §1, §2

[17] = tested on: NCIH1915; conditions: NCI-H1915; NCIH1915, lung
Method: as §1, §2

[18] = tested on: HEC1B; conditions: Homo sapiens, HEC-1B, uterus
Method: as §1, §2

[19] = tested on: KM12; conditions: Homo sapiens; KM12, colon
Method: as §1, §2

[20] = tested on: NOS1; conditions: NOS1, bone
Method: as §1, §2

[21] = tested on: HCC95; conditions: Homo sapiens; HCC95, lung
Method: as §1, §2

[22] = tested on: SNU81; conditions: SNU81, colon
Method: as §1, §2

[23] = tested on: SKOV3; conditions: Homo sapiens, SK-OV-3; SKOV3, ovary
Method: as §1, §2

[24] = tested on: LUDLU1; conditions: LUDLU-1; LUDLU1, lung
Method: as §1, §2

[25] = tested on: HS821T; conditions: bone
Method: as §1, §2

[26] = tested on: KURAMOCHI; conditions: ovary
Method: as §1, §2

[27] = tested on: ECGI10; conditions: ECGI10, esophagus
Method: as §1, §2

[28] = tested on: SW948; conditions: Homo sapiens; SW948, colon
Method: as §1, §2

[29] = tested on: NCIH1573; conditions: Homo sapiens, NCI-H1573; NCIH1573, lung
Method: as §1, §2

[30] = tested on: SKOV3_ATMnull; conditions: ovary
Method: as §1, §2

[31] = tested on: HT144; conditions: Homo sapiens, HT-144; HT144, skin
Method: as §1, §2

[32] = tested on: HCC1438; conditions: HCC1438, lung
Method: as §1, §2

[33] = tested on: GSU; conditions: stomach
Method: as §1, §2

[34] = tested on: HEC151; conditions: HEC151, endometrial
Method: as §1, §2

[35] = tested on: RT11284; conditions: Homo sapiens, RT112/84; RT11284, bladder
Method: as §1, §2

[36] = tested on: MG63; conditions: Homo sapiens, MG-63; MG63, bone
Method: as §1, §2

[37] = tested on: G292CLONEA141B1; conditions: G292CLONEA141B1, bone
Method: as §1, §2

[38] = tested on: HCC1395; conditions: Homo sapiens; HCC1395, breast
Method: as §1, §2

`NC(=O)c1cccc2cn(-c3ccc([C@@H]4CCCNC4)cc3)nc12` [Niraparib, niraparib, reference compound] was tested, and the IC50 [1] was > 300 nM, the IC50 [2] was > 300 nM and the IC50 [3] was > 300 nM. For the same molecule, the IC50 [4] was > 300 nM, the IC50 [5] was > 300 nM and the IC50 [6] was > 300 nM. For the same molecule, the IC50 [7] was > 300 nM, the IC50 [8] was > 300 nM and the IC50 [9] was > 300 nM. For the same molecule, the IC50 [10] was 13.8 nM, the IC50 [11] was > 300 nM and the IC50 [12] was > 300 nM. For the same molecule, the IC50 [13] was 241 nM, the IC50 [14] was 22.4 nM and the IC50 [15] was > 300 nM. The IC50 [16] was > 300 nM, the IC50 [17] was 66.2 nM and the IC50 [18] was > 300 nM. For the same molecule, the IC50 [19] was 106 nM, the IC50 [20] was > 300 nM and the IC50 [21] was > 300 nM. For the same molecule, the IC50 [22] was 18.6 nM, the IC50 [23] was > 300 nM and the IC50 [24] was > 300 nM. The IC50 [25] was > 300 nM, the IC50 [26] was > 300 nM and the IC50 [27] was > 300 nM. The IC50 [28] was > 300 nM, the IC50 [29] was 15.2 nM and the IC50 [30] was > 300 nM. For the same molecule, the IC50 [31] was 114 nM, the IC50 [32] was 42.5 nM and the IC50 [33] was > 300 nM. For the same molecule, the IC50 [34] was > 300 nM, the IC50 [35] was > 300 nM and the IC50 [36] was > 300 nM. For the same molecule, the IC50 [37] was > 300 nM and the IC50 [38] was 8.26 nM.

`COc1ncnc(C2CC2)c1-c1ncc2cnn(Cc3ccc(-c4nc(C(F)(F)F)cn4C)cc3)c2n1` [Formula II, 6-(4-cyclopropyl-6-methoxypyrimidin-5-yl)-1-(4-(1-methyl-4-(trifluoromethyl)-1H-imidazol-2-yl)benzyl)-1H-pyrazolo[3,4-d]pyrimidine] was tested, and the IC50 [1] was > 300 nM, the IC50 [2] was > 300 nM and the IC50 [3] was > 300 nM. The IC50 [4] was > 300 nM, the IC50 [5] was > 300 nM and the IC50 [6] was > 300 nM. The IC50 [7] was > 300 nM, the IC50 [8] was > 300 nM and the IC50 [9] was > 300 nM. The IC50 [10] was > 300 nM, the IC50 [11] was 64.7 nM and the IC50 [12] was > 300 nM. The IC50 [13] was 27.8 nM, the IC50 [14] was > 300 nM and the IC50 [15] was > 300 nM. The IC50 [16] was > 300 nM, the IC50 [17] was 52.2 nM and the IC50 [18] was > 300 nM. For the same molecule, the IC50 [19] was 220 nM, the IC50 [20] was > 300 nM and the IC50 [21] was > 300 nM. For the same molecule, the IC50 [22] was 10.2 nM, the IC50 [23] was > 300 nM and the IC50 [24] was > 300 nM. The IC50 [25] was > 300 nM, the IC50 [26] was > 300 nM and the IC50 [27] was > 300 nM. The IC50 [28] was > 300 nM, the IC50 [29] was 227 nM and the IC50 [30] was > 300 nM. For the same molecule, the IC50 [31] was 84.3 nM, the IC50 [32] was > 300 nM and the IC50 [33] was > 300 nM. The IC50 [34] was > 300 nM, the IC50 [35] was > 300 nM and the IC50 [36] was > 300 nM. For the same molecule, the IC50 [37] was > 300 nM and the IC50 [38] was > 300 nM.
